For this test, the target named is T1, rat α3β4 nAChR (Rattus norvegicus, UniProt P04757+P12392).
T1 construct: expressed in transfected cells; host or cells: HEK293 (rα3β4-HEK293, kept under G-416 selection)
The experiment in a line: Calcium influx assay (dual agonist/antagonist, FLIPR calcium 6) in HEK293 cells expressing rat α3β4 nAChR. The test is classed as cell-based. The procedure:
FIGS. 2A-2B show dual agonist/antagonist fluorescence assays. […] For agonist assays, 12 concentrations of test compounds were added to the cells ([…], final concentrations).
FIGS. 3A-3B show concentration response curves. […] Each concentration-response point represents a minimum of two technical replicates and three biological replicates. EC50, Emax, and IC50 values were calculated from corresponding concentration-response curves fitted using the logistical curve in OriginPro.
Assay Description. HEK293 cells expressing the rat α3β4 nAChR were loaded with an intracellular, calcium-sensitive dye. Activation of the receptor results in an increase in the intracellular calcium concentration and a corresponding increase in fluorescent signal. Multiple concentrations of test compounds were first applied to the rα3β4-HEK293 cells and monitored for their ability to activate α3β4 nAChRs.
Cell culture. […] For fluorescence assays, the cells were seeded into 96-well flat bottom, black wall plates, at a density of approximately 50,000 cells per well in 75 μL of media.
Cells seeded at this density grew into a confluent monolayer in 24 h. Ca^2+ fluorescence assays. Ca^2+ uptake was determined using a FLIPR calcium 6 assay.
For dye loading, the fluorescent dye was reconstituted in 10 mL assay buffer according to the manufacturer's protocol. 75 μL of the dye solution was added to each well and the plate was incubated at 37° C. for 1 h. Plates were then transferred to a FlexStation 3 maintained at 37° C.
Dual Agonist/AntagonistAssay. […] For agonist assays, 12 concentrations of test compounds were added to the cells ([…], final concentrations).
Once again, the fluorescence measured for 28 seconds prior to addition and 90 seconds afterwards.
Data reduction. […] Each concentration-response point represents a minimum of two technical replicates and three biological replicates. EC50, Emax, and IC50 values were calculated from corresponding concentration-response curves (see FIGS. 3A-3B) fitted using the logistical curve in OriginPro.

[1] abbreviates: Example 5, α3β4 nAChR, read-out: IC50.

Like-named read-outs stand apart in the source and are kept apart here.

T1 sequence (P04757 26-499): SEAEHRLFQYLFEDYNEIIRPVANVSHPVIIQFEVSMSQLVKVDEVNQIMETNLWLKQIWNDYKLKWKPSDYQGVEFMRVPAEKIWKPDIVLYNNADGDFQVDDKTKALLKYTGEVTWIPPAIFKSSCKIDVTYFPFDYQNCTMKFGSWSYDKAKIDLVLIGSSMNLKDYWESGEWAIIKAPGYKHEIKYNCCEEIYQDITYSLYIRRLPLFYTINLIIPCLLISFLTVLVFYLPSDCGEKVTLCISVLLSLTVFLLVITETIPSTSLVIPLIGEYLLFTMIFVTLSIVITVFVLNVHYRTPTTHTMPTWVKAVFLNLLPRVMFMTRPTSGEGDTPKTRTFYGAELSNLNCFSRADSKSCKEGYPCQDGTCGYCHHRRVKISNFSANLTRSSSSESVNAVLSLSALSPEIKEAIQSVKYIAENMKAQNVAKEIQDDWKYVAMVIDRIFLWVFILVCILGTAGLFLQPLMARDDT
T1 sequence (P12392 21-495): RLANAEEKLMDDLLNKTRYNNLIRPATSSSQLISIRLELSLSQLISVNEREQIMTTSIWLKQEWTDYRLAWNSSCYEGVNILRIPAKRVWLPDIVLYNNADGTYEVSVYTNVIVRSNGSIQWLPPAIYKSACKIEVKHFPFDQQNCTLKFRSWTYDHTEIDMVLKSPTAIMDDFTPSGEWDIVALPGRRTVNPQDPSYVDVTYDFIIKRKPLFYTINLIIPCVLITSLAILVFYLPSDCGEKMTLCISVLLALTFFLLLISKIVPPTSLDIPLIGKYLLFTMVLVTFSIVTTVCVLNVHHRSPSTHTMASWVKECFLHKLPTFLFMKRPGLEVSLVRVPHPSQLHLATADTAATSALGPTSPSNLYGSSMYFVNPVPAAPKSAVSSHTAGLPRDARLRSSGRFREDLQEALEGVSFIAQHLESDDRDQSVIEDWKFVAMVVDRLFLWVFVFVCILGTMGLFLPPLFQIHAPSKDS

As for `CC1=CCC2CC1C(c1ccnc3ccccc13)N(C)C2(C)C` (stereo not shown), the IC50 under setting [1] was 1400 nM.

`CCN1C(c2ccc(F)c(C(F)(F)F)c2)C2CC(CC=C2C)C1(C)C` (stereo not shown): the IC50 under setting [1] amounted to 760 nM.

As to `CC1=CCC2CC1C(c1ccc(F)c(C(F)(F)F)c1)OC2(C)C` (stereo not shown) [drawing 115], where the note is “α3β4 nAChR IC50, Table 4, R1 and R2 methyl, R3 NH unless otherwise indicated”, the IC50 was over 200000 nM.

In the case of `CC1=CCC2CC1C(c1ccc(F)c(C(F)(F)F)c1)OC2(C)C` (stereo not shown) [drawing 51], the IC50 (IC50, Example 5 text, α3β4 nAChR) was over 100000 nM.

The record behind these values is US20240246970A1, “SUBSTITUTED HETERO-BICYCLOCOMPOUNDS AS SUBTYPE SELECTIVE NICOTINIC ACETYLCHOLINE RECEPTOR INHIBITORS” (THE BOARD OF TRUSTEES OF THE UNIVERSITY OF ILLINOIS, priority 2021, published 2024).
